Test results as given in paper doi:10.1101/2023.11.24.568596v1 (biorxiv, 2023).
Values belong to the compound of their own block, whether it stands above or below them.

Columns and labels:
Details in all cases: binder
AKT3 = AKT3 (Homo sapiens, UniProt Q9Y243)
CK1e = CK1e (Homo sapiens, UniProt P49674)
CK2a1 = CK2a1 (Homo sapiens, UniProt P68400)
FLT1 = FLT1 (Homo sapiens, UniProt P17948)
GSK3B = GSK3B (Homo sapiens, UniProt P49841)
JNK3 = JNK3 (Homo sapiens, UniProt P53779)
LOK = LOK (Homo sapiens, UniProt O94804)
Sequence of LOK (O94804 whole entry): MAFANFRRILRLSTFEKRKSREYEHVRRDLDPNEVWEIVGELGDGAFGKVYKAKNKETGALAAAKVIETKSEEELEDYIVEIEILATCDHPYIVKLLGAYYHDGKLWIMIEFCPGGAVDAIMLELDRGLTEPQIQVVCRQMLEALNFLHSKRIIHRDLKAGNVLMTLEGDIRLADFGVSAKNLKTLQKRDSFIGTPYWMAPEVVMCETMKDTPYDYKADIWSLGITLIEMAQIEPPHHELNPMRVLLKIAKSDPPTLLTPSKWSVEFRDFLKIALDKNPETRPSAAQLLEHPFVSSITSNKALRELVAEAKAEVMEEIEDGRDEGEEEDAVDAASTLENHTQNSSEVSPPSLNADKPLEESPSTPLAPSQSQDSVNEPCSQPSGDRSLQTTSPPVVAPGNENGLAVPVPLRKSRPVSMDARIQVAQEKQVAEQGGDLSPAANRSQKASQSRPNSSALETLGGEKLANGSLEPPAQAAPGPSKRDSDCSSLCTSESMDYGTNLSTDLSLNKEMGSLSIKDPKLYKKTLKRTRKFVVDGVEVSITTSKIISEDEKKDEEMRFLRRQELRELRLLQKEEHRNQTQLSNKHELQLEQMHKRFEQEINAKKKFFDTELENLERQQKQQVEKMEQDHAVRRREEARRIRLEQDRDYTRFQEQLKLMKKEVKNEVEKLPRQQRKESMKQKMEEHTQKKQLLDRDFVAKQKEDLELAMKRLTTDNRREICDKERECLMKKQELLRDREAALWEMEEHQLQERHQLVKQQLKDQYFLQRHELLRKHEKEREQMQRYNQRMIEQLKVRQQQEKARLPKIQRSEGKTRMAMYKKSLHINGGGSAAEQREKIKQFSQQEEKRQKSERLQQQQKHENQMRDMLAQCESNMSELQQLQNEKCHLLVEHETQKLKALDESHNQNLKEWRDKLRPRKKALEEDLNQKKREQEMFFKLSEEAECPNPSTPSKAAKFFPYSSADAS

MAP3K5 = biological target: T1, MAP3K5 (Homo sapiens, UniProt Q99683)
T1 sequence (Q99683 1-1374): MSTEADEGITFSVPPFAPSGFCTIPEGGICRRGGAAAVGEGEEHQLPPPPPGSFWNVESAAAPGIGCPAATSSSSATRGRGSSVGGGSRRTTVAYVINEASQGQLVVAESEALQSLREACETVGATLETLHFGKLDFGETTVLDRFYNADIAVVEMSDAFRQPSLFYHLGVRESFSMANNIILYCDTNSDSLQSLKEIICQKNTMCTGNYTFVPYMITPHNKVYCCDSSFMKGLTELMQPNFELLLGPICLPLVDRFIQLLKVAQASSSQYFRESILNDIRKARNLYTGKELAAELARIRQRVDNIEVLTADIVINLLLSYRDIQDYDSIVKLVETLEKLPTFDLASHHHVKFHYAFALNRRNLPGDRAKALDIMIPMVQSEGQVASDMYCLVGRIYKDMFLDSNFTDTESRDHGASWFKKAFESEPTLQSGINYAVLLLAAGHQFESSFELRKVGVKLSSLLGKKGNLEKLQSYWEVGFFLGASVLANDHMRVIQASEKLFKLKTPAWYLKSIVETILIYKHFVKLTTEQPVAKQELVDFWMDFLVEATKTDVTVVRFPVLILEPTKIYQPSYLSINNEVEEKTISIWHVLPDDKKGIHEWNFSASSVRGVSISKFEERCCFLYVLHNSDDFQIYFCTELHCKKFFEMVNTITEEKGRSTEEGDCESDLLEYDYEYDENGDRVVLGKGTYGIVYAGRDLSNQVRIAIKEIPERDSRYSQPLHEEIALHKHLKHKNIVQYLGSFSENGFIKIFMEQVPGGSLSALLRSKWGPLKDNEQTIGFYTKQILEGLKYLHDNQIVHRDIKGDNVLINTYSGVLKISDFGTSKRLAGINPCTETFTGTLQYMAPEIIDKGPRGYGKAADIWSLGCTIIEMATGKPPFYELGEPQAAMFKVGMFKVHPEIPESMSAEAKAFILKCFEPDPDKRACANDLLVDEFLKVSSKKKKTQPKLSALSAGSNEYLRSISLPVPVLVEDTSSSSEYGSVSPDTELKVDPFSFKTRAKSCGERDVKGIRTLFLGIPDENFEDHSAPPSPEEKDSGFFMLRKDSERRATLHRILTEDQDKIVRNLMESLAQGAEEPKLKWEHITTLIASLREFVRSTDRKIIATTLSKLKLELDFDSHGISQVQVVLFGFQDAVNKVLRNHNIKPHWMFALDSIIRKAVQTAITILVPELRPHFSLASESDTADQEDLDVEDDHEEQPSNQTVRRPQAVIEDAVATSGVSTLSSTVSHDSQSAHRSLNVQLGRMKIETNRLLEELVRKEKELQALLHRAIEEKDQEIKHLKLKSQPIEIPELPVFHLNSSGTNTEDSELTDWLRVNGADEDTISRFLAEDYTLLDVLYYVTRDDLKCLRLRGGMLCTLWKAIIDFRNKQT

PAK4 = PAK4 (Homo sapiens, UniProt O96013)
Sequence of PAK4 (O96013 whole entry): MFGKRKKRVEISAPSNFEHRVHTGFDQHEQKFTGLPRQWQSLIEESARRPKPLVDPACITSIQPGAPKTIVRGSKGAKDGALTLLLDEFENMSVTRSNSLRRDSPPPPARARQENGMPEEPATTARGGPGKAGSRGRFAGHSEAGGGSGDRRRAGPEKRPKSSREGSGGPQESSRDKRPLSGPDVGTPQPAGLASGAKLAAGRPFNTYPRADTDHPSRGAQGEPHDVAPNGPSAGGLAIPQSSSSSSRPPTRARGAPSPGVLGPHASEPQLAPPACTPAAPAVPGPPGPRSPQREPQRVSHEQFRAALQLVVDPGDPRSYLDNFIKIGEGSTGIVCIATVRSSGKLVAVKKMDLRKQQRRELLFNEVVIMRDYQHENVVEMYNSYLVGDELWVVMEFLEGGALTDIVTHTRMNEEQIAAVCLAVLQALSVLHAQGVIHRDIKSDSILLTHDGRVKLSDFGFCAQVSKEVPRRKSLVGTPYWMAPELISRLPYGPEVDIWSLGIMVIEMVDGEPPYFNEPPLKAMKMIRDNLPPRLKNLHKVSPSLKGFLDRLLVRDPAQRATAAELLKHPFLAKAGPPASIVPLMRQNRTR

PHKG2 = biological target: T2, PHKG2 (Homo sapiens, UniProt P15735)
T2 sequence (P15735 1-406): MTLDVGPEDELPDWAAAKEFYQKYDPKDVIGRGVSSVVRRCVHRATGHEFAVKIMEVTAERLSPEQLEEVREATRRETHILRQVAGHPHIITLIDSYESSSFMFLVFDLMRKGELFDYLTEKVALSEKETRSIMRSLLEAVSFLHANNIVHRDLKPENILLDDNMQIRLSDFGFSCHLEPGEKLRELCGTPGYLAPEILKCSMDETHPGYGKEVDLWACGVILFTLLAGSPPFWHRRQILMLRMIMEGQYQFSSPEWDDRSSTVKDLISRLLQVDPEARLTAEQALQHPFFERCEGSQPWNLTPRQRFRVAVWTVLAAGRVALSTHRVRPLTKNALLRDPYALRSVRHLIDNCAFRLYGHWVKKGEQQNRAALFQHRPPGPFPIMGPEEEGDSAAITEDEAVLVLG

PIM3 = PIM3 (Homo sapiens, UniProt Q86V86)
SRPK1 = SRPK1 (Homo sapiens, UniProt Q96SB4)
Sequence of SRPK1 (Q96SB4 whole entry): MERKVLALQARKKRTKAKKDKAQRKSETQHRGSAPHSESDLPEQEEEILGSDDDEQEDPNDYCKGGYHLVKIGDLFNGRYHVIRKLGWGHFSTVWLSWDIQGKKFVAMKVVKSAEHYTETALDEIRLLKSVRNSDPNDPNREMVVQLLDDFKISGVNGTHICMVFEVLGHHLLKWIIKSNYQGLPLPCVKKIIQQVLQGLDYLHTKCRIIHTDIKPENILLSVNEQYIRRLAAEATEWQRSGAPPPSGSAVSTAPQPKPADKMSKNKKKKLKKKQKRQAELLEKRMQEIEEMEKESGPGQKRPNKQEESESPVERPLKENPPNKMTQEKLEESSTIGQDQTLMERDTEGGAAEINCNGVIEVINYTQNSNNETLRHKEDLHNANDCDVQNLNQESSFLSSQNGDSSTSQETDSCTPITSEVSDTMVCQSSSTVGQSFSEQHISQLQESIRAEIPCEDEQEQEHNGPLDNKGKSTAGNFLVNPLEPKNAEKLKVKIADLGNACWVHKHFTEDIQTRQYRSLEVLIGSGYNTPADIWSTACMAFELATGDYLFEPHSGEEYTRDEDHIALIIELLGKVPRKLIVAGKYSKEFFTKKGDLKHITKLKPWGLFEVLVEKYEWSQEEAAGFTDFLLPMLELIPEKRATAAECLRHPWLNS

Sequence of FLT1 (P17948 whole entry): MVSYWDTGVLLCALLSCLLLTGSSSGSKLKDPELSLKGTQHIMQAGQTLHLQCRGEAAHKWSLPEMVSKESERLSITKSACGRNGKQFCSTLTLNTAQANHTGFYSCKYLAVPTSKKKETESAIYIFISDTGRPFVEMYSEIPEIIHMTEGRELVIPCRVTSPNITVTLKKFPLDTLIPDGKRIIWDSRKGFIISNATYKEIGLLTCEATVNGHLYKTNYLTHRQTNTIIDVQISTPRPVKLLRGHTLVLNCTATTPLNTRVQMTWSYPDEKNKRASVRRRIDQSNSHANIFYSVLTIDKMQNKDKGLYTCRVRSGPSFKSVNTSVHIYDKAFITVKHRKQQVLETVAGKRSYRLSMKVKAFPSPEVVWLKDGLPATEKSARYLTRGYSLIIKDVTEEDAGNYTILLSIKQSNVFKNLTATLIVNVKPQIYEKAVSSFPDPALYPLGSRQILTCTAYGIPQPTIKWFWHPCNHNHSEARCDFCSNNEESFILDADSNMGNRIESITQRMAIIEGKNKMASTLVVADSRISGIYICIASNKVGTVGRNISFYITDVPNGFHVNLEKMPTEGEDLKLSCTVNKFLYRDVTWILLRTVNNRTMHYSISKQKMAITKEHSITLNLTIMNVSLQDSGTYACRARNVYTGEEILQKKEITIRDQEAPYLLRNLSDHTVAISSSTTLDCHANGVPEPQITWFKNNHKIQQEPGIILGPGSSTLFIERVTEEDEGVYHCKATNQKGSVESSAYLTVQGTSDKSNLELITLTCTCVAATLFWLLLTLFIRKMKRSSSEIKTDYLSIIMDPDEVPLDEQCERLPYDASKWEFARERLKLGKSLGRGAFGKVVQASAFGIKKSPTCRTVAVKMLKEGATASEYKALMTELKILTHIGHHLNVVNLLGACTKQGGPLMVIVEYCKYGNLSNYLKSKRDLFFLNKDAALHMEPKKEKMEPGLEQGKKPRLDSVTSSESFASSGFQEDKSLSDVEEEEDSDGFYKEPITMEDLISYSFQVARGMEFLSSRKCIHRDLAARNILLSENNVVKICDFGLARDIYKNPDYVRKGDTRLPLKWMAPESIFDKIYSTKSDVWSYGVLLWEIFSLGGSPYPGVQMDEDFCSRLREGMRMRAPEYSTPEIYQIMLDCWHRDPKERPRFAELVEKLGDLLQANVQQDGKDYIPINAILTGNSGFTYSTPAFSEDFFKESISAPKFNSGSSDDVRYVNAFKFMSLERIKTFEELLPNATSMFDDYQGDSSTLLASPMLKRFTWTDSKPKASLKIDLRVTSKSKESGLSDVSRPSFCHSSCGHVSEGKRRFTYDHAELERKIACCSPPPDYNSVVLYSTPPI
Sequence of CK1e (P49674 whole entry): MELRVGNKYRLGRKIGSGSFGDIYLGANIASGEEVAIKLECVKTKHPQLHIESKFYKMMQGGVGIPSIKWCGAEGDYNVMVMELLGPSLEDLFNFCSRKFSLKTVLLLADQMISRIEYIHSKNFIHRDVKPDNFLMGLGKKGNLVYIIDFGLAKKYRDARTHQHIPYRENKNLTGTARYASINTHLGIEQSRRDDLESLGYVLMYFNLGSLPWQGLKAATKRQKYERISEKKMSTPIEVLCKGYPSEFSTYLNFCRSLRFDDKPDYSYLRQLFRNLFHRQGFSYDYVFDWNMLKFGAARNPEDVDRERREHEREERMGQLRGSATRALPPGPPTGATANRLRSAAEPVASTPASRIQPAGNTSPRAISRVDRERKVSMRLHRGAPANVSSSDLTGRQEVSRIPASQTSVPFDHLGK
Sequence of JNK3 (P53779 whole entry): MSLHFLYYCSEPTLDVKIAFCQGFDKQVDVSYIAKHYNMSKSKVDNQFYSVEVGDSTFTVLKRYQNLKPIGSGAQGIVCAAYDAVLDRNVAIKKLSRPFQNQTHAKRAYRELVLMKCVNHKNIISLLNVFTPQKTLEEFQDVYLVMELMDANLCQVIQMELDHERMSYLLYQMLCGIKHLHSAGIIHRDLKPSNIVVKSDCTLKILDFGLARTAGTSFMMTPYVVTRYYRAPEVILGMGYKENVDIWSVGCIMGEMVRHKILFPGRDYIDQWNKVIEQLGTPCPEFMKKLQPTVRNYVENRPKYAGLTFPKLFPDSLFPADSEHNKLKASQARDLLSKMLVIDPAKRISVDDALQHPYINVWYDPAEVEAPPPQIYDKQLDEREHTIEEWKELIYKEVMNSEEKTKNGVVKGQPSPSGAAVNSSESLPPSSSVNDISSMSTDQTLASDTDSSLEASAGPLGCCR
Sequence of GSK3B (P49841 whole entry): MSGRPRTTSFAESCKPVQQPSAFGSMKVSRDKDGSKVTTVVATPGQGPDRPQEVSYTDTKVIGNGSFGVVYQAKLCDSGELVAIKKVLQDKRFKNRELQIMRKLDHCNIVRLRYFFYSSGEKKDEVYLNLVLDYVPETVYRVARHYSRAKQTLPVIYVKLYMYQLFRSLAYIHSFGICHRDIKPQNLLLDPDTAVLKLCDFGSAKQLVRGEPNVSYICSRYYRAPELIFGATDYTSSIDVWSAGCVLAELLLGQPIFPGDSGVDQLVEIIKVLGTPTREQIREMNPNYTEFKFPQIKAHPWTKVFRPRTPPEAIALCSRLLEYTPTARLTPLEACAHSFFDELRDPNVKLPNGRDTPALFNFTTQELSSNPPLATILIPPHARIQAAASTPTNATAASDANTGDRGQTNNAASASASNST

dTm 33 (AKT3): 4.6 °C
dTm 33 (CK1e): 6.9 °C
dTm 33 (CK2a1): -0.4 °C
dTm 33 (FLT1): 4.9 °C
dTm 33 (GSK3B): 2.3 °C
dTm 33 (JNK3): 5.2 °C
dTm 33 (LOK): -0.3 °C
dTm 33 (MAP3K5): 14.1 °C
dTm 33 (PAK4): 8.2 °C
dTm 33 (PHKG2): 6.2 °C
dTm 33 (PIM3): 4.6 °C
dTm 33 (SRPK1): -0.2 °C
SMILES: Cc1cccc(-c2ccc(-c3cc4cnc(Nc5ccc(F)c(CO)c5)nc4n(CCCCN)c3=O)c(Cl)c2)n1 [compound 33, 8-(4-Aminobutyl)-6-(2-chloro-4-(6-methylpyridin-2-yl)phenyl)-2-((4-fluoro-3-(hydroxymethyl)phenyl)amino)pyrido[2,3-d]pyrimidin-7(8H)-one]

dTm 35 (AKT3): 1.0 °C
dTm 35 (CK1e): 6.6 °C
dTm 35 (CK2a1): -0.1 °C
dTm 35 (FLT1): 5.6 °C
dTm 35 (GSK3B): -0.3 °C
dTm 35 (JNK3): 2.3 °C
dTm 35 (LOK): -0.8 °C
dTm 35 (MAP3K5): 12.2 °C
dTm 35 (PAK4): 4.1 °C
dTm 35 (PHKG2): 8.8 °C
dTm 35 (PIM3): -2.4 °C
dTm 35 (SRPK1): -0.5 °C
SMILES: COc1cc(N2CCOCC2)ccc1Nc1ncc2cc(-c3ccc(-c4cccc(C)n4)cc3Cl)c(=O)n(CCCCN)c2n1 [compound 35, 8-(4-Aminobutyl)-6-(2-chloro-4-(6-methylpyridin-2-yl)phenyl)-2-((2-methoxy-4-morpholino-phenyl)amino)pyrido[2,3-d]pyrimidin-7(8H)-one]

dTm 36 (AKT3): 1.0 °C
dTm 36 (CK1e): 5.1 °C
dTm 36 (CK2a1): 0.2 °C
dTm 36 (FLT1): 4.4 °C
dTm 36 (GSK3B): 0.2 °C
dTm 36 (JNK3): 1.1 °C
dTm 36 (LOK): -0.4 °C
dTm 36 (MAP3K5): 10.1 °C
dTm 36 (PAK4): 3.9 °C
dTm 36 (PHKG2): 8.0 °C
dTm 36 (PIM3): -2.1 °C
dTm 36 (SRPK1): 0.0 °C
SMILES: COc1cc(N2CCN(C)CC2)ccc1Nc1ncc2cc(-c3ccc(-c4cccc(C)n4)cc3Cl)c(=O)n(CCCCN)c2n1 [compound 36, 8-(4-Aminobutyl)-6-(2-chloro-4-(6-methylpyridin-2-yl)phenyl)-2-((2-methoxy-4-(4-methylpiperazin-1-yl)phenyl)amino)pyrido[2,3-d]pyrimidin-7(8H)-one]

dTm 34 (AKT3): 1.3 °C
dTm 34 (CK1e): 6.5 °C
dTm 34 (CK2a1): 0.5 °C
dTm 34 (FLT1): 3.2 °C
dTm 34 (GSK3B): 2.0 °C
dTm 34 (JNK3): 3.0 °C
dTm 34 (LOK): -0.3 °C
dTm 34 (MAP3K5): 10.3 °C
dTm 34 (PAK4): 3.0 °C
dTm 34 (PHKG2): 3.5 °C
dTm 34 (PIM3): 2.4 °C
dTm 34 (SRPK1): 0.1 °C
SMILES: COc1ccc(O)c(Nc2ncc3cc(-c4ccc(-c5cccc(C)n5)cc4Cl)c(=O)n(CCCCN)c3n2)c1 [compound 34, 8-(4-Aminobutyl)-6-(2-chloro-4-(6-methylpyridin-2-yl)phenyl)-2-((2-hydroxy-5-methoxy-phenyl)amino)pyrido[2,3-d]pyrimidin-7(8H)-one]
